# Test system: Pyocyanin
# Experiment: Pyocyanin Inhibition Assay
# Format: cell-based, P. aeruginosa, strain PA14
# Settings: Pseudomonas aeruginosa, PA14, 24 h, read-out: Pyocyanin Inhibition No. IC50 (μM)
# Procedure: Test compounds are dissolved in DMSO at 10 mM and stored at −20° C. until needed. Seven test concentrations from 0.0032 micromolar to 31.6 micromolar are used for each compound.
# P. aeruginosa, strain PA14, is inoculated into 5 mL of LB broth in a 15-mL sterile glass culture tube and incubated overnight at 37° C. under shaking (˜240 rpm). The overnight culture is then diluted in LB Broth to give an OD600=0.04 (T0 culture). Colony Forming Units (CFU)/mL of the overnight culture and T0 culture are determined by a series of 1:10 serial dilutions in sterile saline. 4×20 μL of each dilution is seeded on LB agar plates and incubated at 35±2° C. for 20 hours. CFU/mL is determined from the dilution that gives 2 to 50 colonies/20 μL.
# For concentration response curve (CRC) experiments, internal standard, 2-((5-nitro-1H-indol-2-yl)thio)-N-(4-phenoxyphenyl)acetamide, a compound previously identified as an MvfR inhibitor (see Example 1 of US 2014-0066454 (WO 2012/116010)), and test compounds are serially diluted in DMSO to 200 times each final concentration (0.5% DMSO fmal), and 1 μL/well is dispensed in duplicate into 2 mL wells of a 96-well deep well plate. 200 μL/well of T0 culture are added to each internal standard/test compound well. Wells containing only T0 culture (200 200 μL/well) are used to determine pyocyanin control level and wells containing only LB broth (blank wells) are also included in the plate.
# The plate is sealed and incubated at 37° C. under shaking (˜700 rpm) using a microtiter shaker for 24 hours. At the end of the incubation period, the plate is centrifuged at 4,000 g for 40 minutes at room temperature, 100 μL/well of the supernatant is transferred to a 96-microtiter PS flat-bottom plate, and absorbance at 690 nm is determined using SPECTROstar® Nano microplate reader. Pyocyanin concentration (M) is determined using the equation C=A690/(ε×d), where ε is the Pyocyanin extinction coefficient, at A690 nm ε is 4,310 M^−1 cm^−1 and d is the experimentally derived pathlength. The level of pyocyanin in the presence of test compound is expressed as percentage of inhibition with respect to the control. Curve fitting and IC50 determination were carried out using a four-parameter logistic model using GraphPad Prism v.5.
row,Structure (SMILES),IC50
1,O=C(CSc1nc2cc(C(=O)O)ccc2[nH]1)Nc1ccc(Cl)cc1 [Compound 97],> 10 µM
2,CS(=O)(=O)c1ccc2[nH]c(SCC(=O)Nc3ccc(Cl)cc3)nc2c1 [Compound 98],> 10 µM
3,NS(=O)(=O)c1ccc2[nH]c(SCC(=O)Nc3ccc(Cl)cc3)nc2c1 [Compound 99],> 10 µM
4,O=C(CSc1nc2ccncc2[nH]1)Nc1ccc(Cl)cc1 [Compound 100],> 10 µM
5,O=C(CSc1nc2cccnc2[nH]1)Nc1ccc(Cl)cc1 [Compound 101],> 10 µM
6,N#Cc1ccc(NC(=O)CSc2nc3cnccc3[nH]2)cc1 [Compound 102],> 10 µM
7,N#Cc1ccc(NC(=O)CSc2nc3ncccc3[nH]2)cc1 [Compound 103],> 10 µM
8,CS(=O)(=O)c1ccc2[nH]c(SCC(=O)Nc3ccc(C#N)cc3)nc2c1 [Compound 107],> 10 µM
9,N#Cc1ccc(NC(=O)CSc2nc3cc(S(N)(=O)=O)ccc3[nH]2)cc1 [Compound 108],> 10 µM
10,COC(=O)c1ccc2[nH]c(SCC(=O)Nc3ccc(Cl)cc3)nc2c1 [Compound 109],> 10 µM
11,O=C(CSc1nc2ccc(-c3ncccn3)cc2[nH]1)Nc1ccc(Cl)cc1 [Compound 114],> 10 µM
12,CNC(=O)c1ccc2[nH]c(SCC(=O)Nc3ccc(Cl)cc3)nc2c1 [Compound 115],> 10 µM
13,CN(C)C(=O)c1ccc2[nH]c(SCC(=O)Nc3ccc(Cl)cc3)nc2c1 [Compound 118],> 10 µM
14,CN(C)C(=O)c1ccc2[nH]c(SCC(=O)Nc3ccc(C#N)cc3)nc2c1 [Compound 119],> 10 µM
15,Cc1ccc(NC(=O)C(C)Sc2nc3ccc(Cl)cc3[nH]2)cc1 (stereo not drawn) [Compound 120],> 10 µM
16,Cc1cccc(NC(=O)CSc2nc3cccnc3[nH]2)c1 [Compound 121],> 10 µM
17,O=C(CSc1nc2cccnc2[nH]1)Nc1ccccc1 [Compound 122],> 10 µM
18,CC(=O)Nc1cccc(NC(=O)CSc2nc3cc(C)ccc3[nH]2)c1 [Compound 123],> 10 µM
19,CC(=O)c1ccc(NC(=O)CSc2nc3ccc(C)cc3[nH]2)cc1 [Compound 124],> 10 µM
20,O=C(CSc1nc2ccc(-c3ncco3)cc2[nH]1)Nc1ccc(Cl)cc1 [Compound 127],> 10 µM

row,Structure (SMILES),IC50
1,N#Cc1ccc(NC(=O)CSc2nc3ccc(-c4ncco4)cc3[nH]2)cc1 [Compound 128],> 10 µM
2,CNC(=O)c1ccc2[nH]c(SCC(=O)Nc3ccc(C#N)cc3)nc2c1 [Compound 129],> 10 µM
3,N#Cc1ccc(NC(=O)CSc2nc3cc(O)ccc3[nH]2)cc1 [Compound 130],> 10 µM
4,O=C(CSc1nc2cc(O)ccc2[nH]1)Nc1ccc(Cl)cc1 [Compound 131],> 10 µM
5,O=C(CSc1nc2ccncc2[nH]1)Nc1ccccc1F [Compound 132],> 10 µM
6,Cc1ccc(NC(=O)CSc2nc3cccnc3[nH]2)cc1 [Compound 133],> 10 µM
7,"Cc1cc(Cl)ccc1NC(=O)CSc1nc2cc(C#N)ccc2[nH]1 [Compound 160, N-(4-chloro-2-methylphenyl)-2-((5-cyano-1H-benzo[d]imidazol-2-yl)thio)acetamide]",1 to 10 µM
8,"COc1cc(Oc2cccnc2)ccc1NC(=O)CSc1nc2cc(Cl)ccc2[nH]1 [Compound 161, 2-((5-chloro-1H-benzo[d]imidazol-2-yl)thio)-N-(2-methoxy-4-(pyridin-3-yloxy)phenyl)acetamide]",< 0.1 µM
9,"O=C(CSc1nc2cc(Cl)ccc2[nH]1)Nc1ccc(Oc2cccnc2)cc1O [Compound 162, 2-((5-Chloro-1H-benzo[d]imidazol-2-yl)thio)-N-(2-hydroxy-4-(pyridin-3-yloxy)phenyl)acetamide]",< 0.1 µM
10,"Cc1cc(Oc2cccnc2)ccc1NC(=O)CSc1nc2cc(Cl)ccc2[nH]1 [Compound 163, 2-((5-Chloro-1H-benzo[d]imidazol-2-yl)thio)-N-(2-methyl-4-(pyridin-3-yloxy)phenyl)acetamide]",0.1 to 1 µM
11,"COc1cc(Cl)cc2nc(SCC(=O)Nc3ccc(Oc4cccnc4)cc3)[nH]c12 [Compound 164, 2-((5-chloro-7-methoxy-1H-benzo[d]imidazol-2-yl)thio)-N-(4-(pyridin-3-yloxy)phenyl)acetamide]",< 0.1 µM
12,"O=C(CSc1nc2cc(Cl)ccc2[nH]1)Nc1ccc(Oc2cccnc2)cc1Cl [Compound 165, 2-((5-Chloro-1H-benzo[d]imidazol-2-yl)thio)-N-(2-chloro-4-(pyridin-3-yloxy)phenyl)acetamide]",< 0.1 µM
13,"COc1cc(Cl)cc2nc(SCC(=O)Nc3ccc(Cl)cc3)[nH]c12 [Compound 166, 2-((5-Chloro-7-methoxy-1H-benzo[d]imidazol-2-yl)thio)-N-(4-chlorophenyl)acetamide]",0.1 to 1 µM
14,"N#Cc1ccc2[nH]c(SCC(=O)Nc3ccc(Cl)cc3Cl)nc2c1 [Compound 167, 2-((5-Cyano-1H-benzo[d]imidazol-2-yl)thio)-N-(2,4-dichlorophenyl)acetamide]",0.1 to 1 µM
15,"Cc1cc(Oc2cccnc2)ccc1NC(=O)CSc1nc2cc(C#N)ccc2[nH]1 [Compound 168, 2-((5-Cyano-1H-benzo[d]imidazol-2-yl)thio)-N-(2-methyl-4-(pyridin-3-yloxy)phenyl)acetamide]",0.1 to 1 µM
16,"COc1cc(Oc2cccnc2)ccc1NC(=O)CSc1nc2cc(C#N)ccc2[nH]1 [Compound 169, 2-((5-Cyano-1H-benzo[d]imidazol-2-yl)thio)-N-(2-methoxy-4-(pyridin-3-yloxy)phenyl)acetamide]",0.1 to 1 µM
17,"N#Cc1ccc2[nH]c(SCC(=O)Nc3ccc(Oc4cccnc4)cc3Cl)nc2c1 [Compound 170, N-(2-chloro-4-(pyridin-3-yloxy)phenyl)-2-((5-cyano-1H-benzo[d]imidazol-2-yl)thio)acetamide]",< 0.1 µM
18,"CC(C)(O)c1cc(Cl)cc2nc(SCC(=O)Nc3ccc(Oc4cccnc4)cc3)[nH]c12 [Compound 171, 2-((5-chloro-7-(2-hydroxypropan-2-yl)-1H-benzo[d]imidazol-2-yl)thio)-N-(4-(pyridin-3-yloxy)phenyl)acetamide]",< 0.1 µM
19,"O=C(C[C@H](O)c1nc2ccc(Cl)cc2[nH]1)Nc1ccc(Oc2cccnc2)cc1 [Compound 172, (S)-3-(6-chloro-1H-benzo[d]imidazol-2-yl)-3-hydroxy-N-(4-(pyridin-3-yloxy)phenyl)propanamide]",1 to 10 µM
